Measurements published in PubChem BioAssay (NCI).
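Method: 48-hour compound exposure of cells in 96-well plates, five concentrations, linear interpolation of endpoints. At the GI50, growth is halved. Definition used: TGI = concentration required for complete inhibition of growth.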

Assays:
Experiment in all cases: DTP human tumour cell line panel, 48 h
SW-620 colon = tested on: SW-620 colon
TK-10 renal = tested on: TK-10 renal
IGROV1 ovarian = tested on: IGROV1 ovarian
NCI-H23 lung = tested on: NCI-H23 lung
SK-MEL-5 melanoma = tested on: SK-MEL-5 melanoma
A549 NSCLC = tested on: A549 NSCLC
SF-539 CNS = tested on: SF-539 CNS
U251 CNS = tested on: U251 CNS
RPMI-8226 leukemia = tested on: RPMI-8226 leukemia
RXF 393 renal = tested on: RXF 393 renal

Row | Structure (SMILES) | GI50 (SW-620 colon) [µM] | TGI (SW-620 colon) [µM] | GI50 (TK-10 renal) [µM] | TGI (TK-10 renal) [µM] | GI50 (IGROV1 ovarian) [µM] | TGI (IGROV1 ovarian) [µM] | GI50 (NCI-H23 lung) [µM] | TGI (NCI-H23 lung) [µM] | GI50 (SK-MEL-5 melanoma) [µM] | TGI (SK-MEL-5 melanoma) [µM] | GI50 (A549 NSCLC) [µM] | TGI (A549 NSCLC) [µM] | GI50 (SF-539 CNS) [µM] | TGI (SF-539 CNS) [µM] | GI50 (U251 CNS) [µM] | TGI (U251 CNS) [µM] | GI50 (RPMI-8226 leukemia) [µM] | TGI (RPMI-8226 leukemia) [µM] | TGI (RXF 393 renal) [µM] | GI50 (RXF 393 renal) [µM]
1 | CCOC(=O)CCSC1=CC(=O)c2nc3ccccc3c3ccnc1c23 | 13.9 | 41.6 | 16.7 | 32.4 | 22.7 | > 100 | 16.3 | 43.3 | 13.4 | 30.4 | 18.3 | 77.4 | 18.2 | 35.2 | 29.8 | > 100 | 9.55 | > 100 |  | 
2 | CC(=N/NC(N)=S)/C(C)=N/NC(N)=S |  | > 100 |  | > 100 |  | > 100 |  | > 100 |  | > 100 |  | > 100 |  | > 100 |  |  |  | > 100 | > 100 | 
3 | O=C1CCc2ccc(O)c(c2)Oc2ccc(cc2)[C@@H]2O[C@@H]2CO1 |  | > 100 |  | > 100 |  | 50.5 |  | > 100 |  | 58.2 |  | > 100 |  | > 100 |  | > 100 |  | > 100 |  | 
4 | CCSCCCC(=O)O |  | > 100 |  | > 100 |  | > 100 |  | > 100 |  | > 100 |  | > 100 |  |  |  | > 100 |  | > 100 | > 100 | 
5 | O=C(O)CCSC(=O)Nc1ccccc1 |  | > 100 |  | > 100 |  | > 100 |  | > 100 |  |  |  | > 100 |  | > 100 |  | > 100 |  | > 100 | > 100 | 
6 | Cc1cn2c(/C=C3\C(=O)N(C)c4ccc(Cl)cc43)c(C)nc2s1 | 4.27 | > 100 | 9.65 | 73 | 2.99 | > 100 | 3.71 | 27.3 | 1.34 | 19.5 | 6.88 | 32.9 | 2.46 | 6.93 | 3.27 | 12.3 | 2.84 | 9.4 |  | 
7 | CN(C)CCNC(=O)c1cccc2c1nc(-c1ccncc1)c1ccccc12 |  | 19.1 |  | 7.77 |  | 20.1 |  | 13.1 |  | 6.8 |  | 12.6 |  | 10.7 |  | 17 |  |  | 7.55 | 
8 | O=C(O)c1[nH]c2c([N+](=O)[O-])cc([N+](=O)[O-])cc2c1C(=O)O |  | > 100 |  | > 100 |  | > 100 |  | > 100 |  | > 100 |  | > 100 |  | > 100 |  | > 100 |  |  | > 100 | 
9 | COc1cc(NCCC2CCCCN2)c2ncccc2c1OC (configuration not stated) | 5.5 | 21.2 | 22.1 | 39.7 |  |  | 7.09 | 31.3 | 4.28 | 14.9 | 19.4 | 41.9 | 14.1 | 28.5 | 4.12 | 16 | 10.1 | 50.8 | 38.5 | 22.8
10 | O=C(Nc1cc2cc([N+](=O)[O-])ccc2oc1=O)c1cccs1 |  | > 100 |  | > 100 |  | > 100 |  |  |  | 45 |  | > 100 |  | 69.9 |  | > 100 |  | > 100 | 34.4 | 
